# Patent publication US20120283303A1, “USE OF N-AMINOIMIDAZOLE CYTOPROTECTIVE COMPOUNDS FOR TREATING CELL DEATH AND/OR GSK-3 MEDIATED DISEASES” (K.U.LEUVEN RESEARCH AND DEVELOPMENT, priority 2006, published 2012)
# Key:
# [1] = Diabetic mouse glucose tolerance test; format: in vivo, mice; conditions: subcutaneously, 30 mg/kg
# Text: NR818 is formulated and tested in the diabetic mouse glucose tolerance test as described in example 269 of U.S. Pat. No. 6,489,344.
# motor neurons = assay: Basal survival of motor neurons in monoculture; format: cell-based, Wistar rats
# Experimental: Cell cultures: Primary motor neuron cultures were prepared from Wistar rats as follows. Spinal cords were dissected from E14 embryos and collected in Hanks' Balanced Salt Solution (HBSS; Gibco Invitrogen, Grand Island, N.Y). Ventral cords were minced and digested for 15 minutes at 37° C. in 0.05% trypsin in HBSS. The solution was then replaced with medium A (L15 (Sigma, St.-Louis, Mo.) supplemented with glucose, progesterone, insulin, putrescine, conalbumin, sodium selenite, penicillin, streptomycin and 2% horse serum) containing 0.4% BSA and 20 μg/ml DNase and the tissue was dissociated by trituration. The resulting single cell suspension was layered on a 6.8% (weight/volume in L15) optiprep cushion (one spinal cord per tube) and centrifuged at 500 g for 15 minutes. […] To remove debris, both fractions were resuspended in medium A and centrifuged for 20 minutes at 75 g on a 4% BSA cushion. For co-cultures, 30,000 motor neurons of the F1 fraction were seeded on a glial feeder layer. Glial feeder layers were prepared by plating F2 cells in 35 mm dishes. After 4 weeks in vitro, cell division was halted by exposure to 10^−5 M cytosine arabinoside. For monocultures, 45,000 motor neurons were seeded in 35 mm dishes.
# Immunocytochemistry: Cell cultures were washed and fixed in cooled paraformadehyde 4% for 30 minutes. After three washes, cells were incubated in blocking solution (10% normal serum in phosphate buffered saline (PBS)) for 1 hour. Monoclonal anti-SMI-32 ( 1/10,000, Sternberger Monoclonal Inc., Luthersville, Md.) and goat anti-GFAP ( 1/10,000, Dako, Denmark) were incubated overnight in 1% normal serum in PBS. Secondary antibodies used were goat anti-mouse IgG Alaxa555 ( 1/500, Molecular Probes, Eugene, Oreg.) and donkey anti-goat FITC ( 1/500, Jackson ImmunoResearch, West Grove, Pa.).
# Exposure experiments: After 1 day in culture NAIM was added to the culture medium at different concentrations. All other compounds were also added after 24 hours in culture. When culture medium was replaced, only half of the medium was taken and replaced by fresh medium, in which all different compounds were substituted as to maintain the initial concentration. In the experiment in which the effect of fresh medium was evaluated, the culture medium was replaced in total every day. […]
# In order to determine whether the effect of NAIM was mediated through the secretion of a soluble factor in the medium by the underlying astroglial feeder layer, we prepared monocultures in which only motor neurons were present. […] In order to determine whether the protective effect of the compound was dose-dependent, we conducted a dose-response study, in which cultures were treated with different concentrations of NAIM from day 1 off and cell survival was assessed on day 5.
# CDK5/p25 = target: T1, CDK5/p25 (Homo sapiens, UniProt Q00535); assay: Radiometric kinase activity assay; format: biochemical; conditions: 5 μg/ml NR-818, 10 μM ATP
# T1 construct: purchased Upstate Biotechnology
# Experimental: (§1) GSK-3 were assayed for their ability to phosphorylate the appropriate peptide/protein substrate in the presence of 5 μg/ml NR-818 and 10 μM ATP. Using the direct radiometric approach, kinase activities were determined and expressed as % activity compared to the untreated control (Upstate Biotechnology, Lake Placid, N.Y.). Activities are given as the mean of duplicate determinations relative to control incubations in which the inhibitor was substituted with DMSO. In the following table 1 providing results for NR818, the following abbreviations are used: • CDK, cyclin-dependent kinase; • CK, casein kinase; • eEF-2K, eukaryotic elongation factor-2 kinase; • JNK, c-Jun N-terminal kinase; • MAPK, mitogen-activated protein kinase; • PKC, protein kinase C; and • PI 3-kinase, phosphatidylinositol 3-kinase.
# JNK2α2 = target: T2, JNK2α2 (Homo sapiens, UniProt P45984); assay: Radiometric kinase activity assay; format: biochemical; conditions: 5 μg/ml NR-818, 10 μM ATP
# T2 construct: purchased Upstate Biotechnology
# Experimental: as §1
# CDK3/cyclinE = target: T3, CDK3/cyclinE (Homo sapiens, UniProt Q00526); assay: Radiometric kinase activity assay; format: biochemical; conditions: 5 μg/ml NR-818, 10 μM ATP
# T3 construct: purchased Upstate Biotechnology
# Experimental: as §1
# CK1 = assay: Radiometric kinase activity assay; format: biochemical; conditions: 5 μg/ml NR-818, 10 μM ATP
# Experimental: as §1
# PI 3-kinaseγ = target: T4, PI 3-kinaseγ (Homo sapiens, UniProt P48736); assay: Radiometric kinase activity assay; format: biochemical; conditions: 5 μg/ml NR-818, 10 μM ATP
# T4 construct: purchased Upstate Biotechnology
# Experimental: as §1
# PI 3-kinaseβ = target: T5, PI 3-kinaseβ (Homo sapiens, UniProt P42338); assay: Radiometric kinase activity assay; format: biochemical; conditions: 5 μg/ml NR-818, 10 μM ATP
# T5 construct: purchased Upstate Biotechnology
# Experimental: as §1
# CDK6/cyclinD3 = target: T6, CDK6/cyclinD3 (Homo sapiens, UniProt Q00534); assay: Radiometric kinase activity assay; format: biochemical; conditions: 5 μg/ml NR-818, 10 μM ATP
# T6 construct: purchased Upstate Biotechnology
# Experimental: as §1
# PI 3-kinaseδ = target: T7, PI 3-kinaseδ (Homo sapiens, UniProt O00329); assay: Radiometric kinase activity assay; format: biochemical; conditions: 5 μg/ml NR-818, 10 μM ATP
# T7 construct: purchased Upstate Biotechnology, Lake Placid, N.Y
# Experimental: as §1
# CDK5/p35 = target: T8, CDK5/p35 (Homo sapiens, UniProt Q00535); assay: Radiometric kinase activity assay; format: biochemical; conditions: 5 μg/ml NR-818, 10 μM ATP
# T8 construct: purchased Upstate Biotechnology
# Experimental: as §1
# MAPK1 = target: T9, MAPK1 (Homo sapiens, UniProt P27361); assay: Radiometric kinase activity assay; format: biochemical; conditions: 5 μg/ml NR-818, 10 μM ATP
# T9 construct: purchased Upstate Biotechnology
# Experimental: as §1
# CDK1/cyclinB = target: T10, CDK1/cyclinB (Homo sapiens, UniProt P06493); assay: Radiometric kinase activity assay; format: biochemical; conditions: 5 μg/ml NR-818, 10 μM ATP
# T10 construct: purchased Upstate Biotechnology
# Experimental: as §1
# eEF-2K = target: T11, eEF-2K (Homo sapiens, UniProt O00418); assay: Radiometric kinase activity assay; format: biochemical; conditions: 5 μg/ml NR-818, 10 μM ATP
# T11 construct: purchased Upstate Biotechnology
# Experimental: as §1
# PKCζ = target: T12, PKCζ (Homo sapiens, UniProt Q05513); assay: Radiometric kinase activity assay; format: biochemical; conditions: 5 μg/ml NR-818, 10 μM ATP
# T12 construct: purchased Upstate Biotechnology
# Experimental: as §1
# JNK1α1 = target: T13, JNK1α1 (Homo sapiens, UniProt P45983); assay: Radiometric kinase activity assay; format: biochemical; conditions: 5 μg/ml NR-818, 10 μM ATP
# T13 construct: purchased Upstate Biotechnology
# Experimental: as §1
# CK2 = target: T14, CK2 (Homo sapiens, UniProt P68400); assay: Radiometric kinase activity assay; format: biochemical; conditions: 5 μg/ml NR-818, 10 μM ATP
# T14 construct: purchased Upstate Biotechnology
# Experimental: as §1
# CDK7/cyclinH = target: T15, CDK7/cyclinH (Homo sapiens, UniProt P50613); assay: Radiometric kinase activity assay; format: biochemical; conditions: 5 μg/ml NR-818, 10 μM ATP
# T15 construct: purchased Upstate Biotechnology
# Experimental: as §1
# CDK2/cyclinA = target: T16, CDK2/cyclinA (Homo sapiens, UniProt P24941); assay: Radiometric kinase activity assay; format: biochemical; conditions: 5 μg/ml NR-818, 10 μM ATP
# T16 construct: purchased Upstate Biotechnology
# Experimental: as §1
# MAPK2 = target: T17, MAPK2 (Homo sapiens, UniProt P28482); assay: Radiometric kinase activity assay; format: biochemical; conditions: 5 μg/ml NR-818, 10 μM ATP
# T17 construct: purchased Upstate Biotechnology
# Experimental: as §1
# T14 sequence (P68400 whole entry): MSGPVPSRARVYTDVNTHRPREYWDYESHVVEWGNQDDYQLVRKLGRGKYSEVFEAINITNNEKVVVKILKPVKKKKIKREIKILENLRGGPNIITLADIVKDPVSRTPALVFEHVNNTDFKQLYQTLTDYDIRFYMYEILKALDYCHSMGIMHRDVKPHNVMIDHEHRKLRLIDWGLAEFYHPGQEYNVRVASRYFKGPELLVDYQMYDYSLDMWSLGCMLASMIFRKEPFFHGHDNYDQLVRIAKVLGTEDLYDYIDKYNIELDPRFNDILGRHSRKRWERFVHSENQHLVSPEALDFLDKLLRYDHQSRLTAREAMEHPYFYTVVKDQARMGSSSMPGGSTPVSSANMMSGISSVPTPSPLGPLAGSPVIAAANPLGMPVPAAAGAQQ
# T14 sequence (P67870 whole entry partner): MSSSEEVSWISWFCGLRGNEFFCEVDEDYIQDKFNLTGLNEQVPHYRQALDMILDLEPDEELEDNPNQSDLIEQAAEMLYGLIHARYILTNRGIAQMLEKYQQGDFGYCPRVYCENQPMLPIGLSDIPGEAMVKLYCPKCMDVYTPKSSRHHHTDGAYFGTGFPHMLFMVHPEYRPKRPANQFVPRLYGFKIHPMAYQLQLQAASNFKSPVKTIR
# T6 sequence (Q00534 whole entry): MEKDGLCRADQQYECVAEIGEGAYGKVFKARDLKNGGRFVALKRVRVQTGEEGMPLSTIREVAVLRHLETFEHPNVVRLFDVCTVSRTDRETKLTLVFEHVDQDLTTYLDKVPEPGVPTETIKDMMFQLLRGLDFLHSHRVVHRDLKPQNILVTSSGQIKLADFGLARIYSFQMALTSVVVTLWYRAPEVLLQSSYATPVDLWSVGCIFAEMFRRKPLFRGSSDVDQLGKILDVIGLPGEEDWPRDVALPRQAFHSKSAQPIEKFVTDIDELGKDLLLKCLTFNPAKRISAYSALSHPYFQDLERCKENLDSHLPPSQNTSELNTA
# T6 sequence (P30281 whole entry partner): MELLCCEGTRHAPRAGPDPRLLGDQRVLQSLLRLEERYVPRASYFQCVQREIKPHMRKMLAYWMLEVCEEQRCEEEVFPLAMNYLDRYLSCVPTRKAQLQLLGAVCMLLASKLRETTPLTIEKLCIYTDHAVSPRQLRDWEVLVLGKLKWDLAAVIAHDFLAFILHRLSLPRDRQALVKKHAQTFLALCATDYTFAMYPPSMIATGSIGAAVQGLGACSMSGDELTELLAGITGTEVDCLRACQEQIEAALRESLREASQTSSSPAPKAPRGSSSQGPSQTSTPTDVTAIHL
# T12 sequence (Q05513 whole entry): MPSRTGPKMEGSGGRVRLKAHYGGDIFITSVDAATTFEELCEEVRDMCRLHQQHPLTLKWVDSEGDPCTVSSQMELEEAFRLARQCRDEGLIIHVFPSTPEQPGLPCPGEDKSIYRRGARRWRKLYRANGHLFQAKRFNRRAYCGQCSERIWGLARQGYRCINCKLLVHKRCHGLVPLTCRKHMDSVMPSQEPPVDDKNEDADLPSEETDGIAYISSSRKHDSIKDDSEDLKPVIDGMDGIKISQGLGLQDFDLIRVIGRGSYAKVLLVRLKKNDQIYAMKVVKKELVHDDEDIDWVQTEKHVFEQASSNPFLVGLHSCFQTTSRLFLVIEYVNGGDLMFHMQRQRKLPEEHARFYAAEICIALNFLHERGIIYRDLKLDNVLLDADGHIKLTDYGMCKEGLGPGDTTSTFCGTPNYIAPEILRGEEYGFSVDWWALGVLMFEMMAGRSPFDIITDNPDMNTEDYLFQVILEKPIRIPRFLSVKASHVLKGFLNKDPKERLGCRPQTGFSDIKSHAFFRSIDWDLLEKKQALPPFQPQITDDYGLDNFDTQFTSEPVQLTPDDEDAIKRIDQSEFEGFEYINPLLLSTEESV
# T7 sequence (O00329 whole entry): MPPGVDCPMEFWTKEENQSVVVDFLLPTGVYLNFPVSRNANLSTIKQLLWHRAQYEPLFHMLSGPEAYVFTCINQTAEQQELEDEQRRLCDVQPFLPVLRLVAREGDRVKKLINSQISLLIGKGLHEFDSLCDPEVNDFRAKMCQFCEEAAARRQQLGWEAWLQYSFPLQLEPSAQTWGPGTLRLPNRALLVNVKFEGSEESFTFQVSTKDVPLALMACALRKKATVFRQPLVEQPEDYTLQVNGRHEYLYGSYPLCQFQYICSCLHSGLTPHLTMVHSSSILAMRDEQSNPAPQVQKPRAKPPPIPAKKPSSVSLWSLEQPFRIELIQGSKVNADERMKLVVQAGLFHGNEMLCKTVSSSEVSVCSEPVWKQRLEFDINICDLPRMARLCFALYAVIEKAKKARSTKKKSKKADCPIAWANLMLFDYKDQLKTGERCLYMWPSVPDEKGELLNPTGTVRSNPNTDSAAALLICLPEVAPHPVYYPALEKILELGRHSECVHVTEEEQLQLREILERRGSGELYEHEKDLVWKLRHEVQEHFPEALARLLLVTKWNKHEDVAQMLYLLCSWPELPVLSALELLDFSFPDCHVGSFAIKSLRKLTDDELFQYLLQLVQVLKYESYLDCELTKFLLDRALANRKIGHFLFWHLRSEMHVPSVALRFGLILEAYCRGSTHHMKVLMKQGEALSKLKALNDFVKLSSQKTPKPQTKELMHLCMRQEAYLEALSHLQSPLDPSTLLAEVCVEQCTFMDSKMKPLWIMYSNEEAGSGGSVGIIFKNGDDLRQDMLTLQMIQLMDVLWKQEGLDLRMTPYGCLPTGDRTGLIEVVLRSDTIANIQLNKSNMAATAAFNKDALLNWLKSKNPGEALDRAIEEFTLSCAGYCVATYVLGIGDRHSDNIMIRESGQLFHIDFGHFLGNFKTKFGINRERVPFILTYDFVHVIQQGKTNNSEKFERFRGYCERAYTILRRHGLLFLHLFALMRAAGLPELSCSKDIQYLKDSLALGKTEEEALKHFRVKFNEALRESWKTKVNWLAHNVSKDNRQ
# T7 sequence (P27986 whole entry partner): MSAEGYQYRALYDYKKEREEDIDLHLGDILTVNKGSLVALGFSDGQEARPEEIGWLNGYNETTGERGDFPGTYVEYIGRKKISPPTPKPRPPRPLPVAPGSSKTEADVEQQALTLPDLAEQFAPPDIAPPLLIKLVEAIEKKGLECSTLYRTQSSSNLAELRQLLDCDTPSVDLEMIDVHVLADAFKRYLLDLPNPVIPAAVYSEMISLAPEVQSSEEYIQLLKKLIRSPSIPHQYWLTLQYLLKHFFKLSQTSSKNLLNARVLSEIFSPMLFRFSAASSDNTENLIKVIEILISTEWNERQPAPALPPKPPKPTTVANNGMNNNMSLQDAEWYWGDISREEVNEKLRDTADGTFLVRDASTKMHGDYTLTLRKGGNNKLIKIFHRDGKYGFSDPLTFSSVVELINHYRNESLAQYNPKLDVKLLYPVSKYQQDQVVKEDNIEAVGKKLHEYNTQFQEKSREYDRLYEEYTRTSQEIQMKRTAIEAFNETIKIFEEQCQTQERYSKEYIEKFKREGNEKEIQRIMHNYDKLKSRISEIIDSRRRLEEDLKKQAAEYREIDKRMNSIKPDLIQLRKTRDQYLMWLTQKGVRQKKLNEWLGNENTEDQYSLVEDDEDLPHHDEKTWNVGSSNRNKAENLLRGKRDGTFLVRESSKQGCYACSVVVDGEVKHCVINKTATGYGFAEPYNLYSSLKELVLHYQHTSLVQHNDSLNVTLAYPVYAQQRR
# T3 sequence (Q00526 whole entry): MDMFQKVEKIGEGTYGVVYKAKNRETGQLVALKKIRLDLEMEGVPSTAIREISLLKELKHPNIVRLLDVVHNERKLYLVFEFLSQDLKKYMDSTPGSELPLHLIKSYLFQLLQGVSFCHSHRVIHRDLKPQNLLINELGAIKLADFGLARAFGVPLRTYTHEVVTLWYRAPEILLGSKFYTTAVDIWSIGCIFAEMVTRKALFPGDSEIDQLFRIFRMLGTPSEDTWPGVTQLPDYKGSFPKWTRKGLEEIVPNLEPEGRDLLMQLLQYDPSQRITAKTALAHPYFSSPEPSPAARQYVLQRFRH
# T3 sequence (P24864 whole entry partner): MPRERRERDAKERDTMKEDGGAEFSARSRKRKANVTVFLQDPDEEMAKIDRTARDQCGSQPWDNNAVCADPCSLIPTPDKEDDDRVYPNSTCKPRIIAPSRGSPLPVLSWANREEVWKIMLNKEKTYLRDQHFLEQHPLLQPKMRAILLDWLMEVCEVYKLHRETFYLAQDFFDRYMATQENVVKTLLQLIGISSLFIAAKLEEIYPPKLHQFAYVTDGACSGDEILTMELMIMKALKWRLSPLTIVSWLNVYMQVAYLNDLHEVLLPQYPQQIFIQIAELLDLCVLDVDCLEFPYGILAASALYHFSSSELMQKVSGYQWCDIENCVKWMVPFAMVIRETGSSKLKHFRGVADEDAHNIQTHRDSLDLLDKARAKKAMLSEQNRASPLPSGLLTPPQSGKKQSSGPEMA
# T8 sequence (Q00535 whole entry): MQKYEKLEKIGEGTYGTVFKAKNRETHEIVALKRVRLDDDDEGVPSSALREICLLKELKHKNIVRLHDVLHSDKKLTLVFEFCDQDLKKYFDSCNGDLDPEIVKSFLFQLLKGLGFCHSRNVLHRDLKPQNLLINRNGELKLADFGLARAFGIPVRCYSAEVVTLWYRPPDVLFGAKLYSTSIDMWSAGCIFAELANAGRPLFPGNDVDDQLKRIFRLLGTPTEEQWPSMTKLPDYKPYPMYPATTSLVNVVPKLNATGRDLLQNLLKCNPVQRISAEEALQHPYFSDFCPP
# T8 sequence (Q15078 2-307 partner limits assumed): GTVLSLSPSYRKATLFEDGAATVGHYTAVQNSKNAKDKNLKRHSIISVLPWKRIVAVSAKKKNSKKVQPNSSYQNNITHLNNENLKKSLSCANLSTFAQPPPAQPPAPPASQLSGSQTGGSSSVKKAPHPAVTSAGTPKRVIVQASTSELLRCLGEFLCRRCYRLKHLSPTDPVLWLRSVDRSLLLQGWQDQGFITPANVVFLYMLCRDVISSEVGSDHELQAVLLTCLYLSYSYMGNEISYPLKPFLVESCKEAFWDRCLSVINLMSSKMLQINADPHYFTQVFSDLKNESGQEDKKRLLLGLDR
structure (smiles),measurement,setting,value
"Cc1nc(S)n(Nc2cccc3ccccc23)c1-c1ccccc1 [HER/NR818, 4-Methyl-1-(naphthalen-1-ylamino)-5-phenyl-1,3-dihydro-imidazole-2-thione]",basal hyperglycemia just prior to the glucose tolerance test,[1]; diabetic mice,significant reduction
same,glucose disposal following glucose challenge,[1]; diabetic mice,significantly improved
same,tissue penetrance in vivo,[1]; mice,high
same,effect of daily medium replacement on protective properties,"motor neurons; medium replaced every day, FIG. 3",no effect on the protective properties
same,basal survival of motor neurons,"motor neurons; monoculture, FIG. 1B",significant increase of the basal survival
same,"protective effect in combination with IL-2, IL-2-receptor blocking antibody or GM-CSF","motor neurons; monoculture, survival on day 5, FIG. 4",not influenced by either of the added compounds
same,optimal concentration for motor neuron survival,"motor neurons; monocultures, dose-response, treated from day 1, survival assessed on day 5, FIG. 2",1 µg/mL
same,Activity (% of control),CDK5/p25,98 % of control
same,Activity (% of control),JNK2α2,100 % of control
same,Activity (% of control),CDK3/cyclinE,103 % of control
same,Activity (% of control),CK1,106 % of control
same,Activity (% of control),PI 3-kinaseγ,96 % of control
same,Activity (% of control),PI 3-kinaseβ,81 % of control
same,Activity (% of control),CDK6/cyclinD3,112 % of control
same,Activity (% of control),PI 3-kinaseδ,89 % of control
same,Activity (% of control),CDK5/p35,92 % of control
same,Activity (% of control),MAPK1,104 % of control
same,Activity (% of control),CDK1/cyclinB,88 % of control
same,Activity (% of control),eEF-2K,101 % of control
same,Activity (% of control),PKCζ,98 % of control
same,Activity (% of control),JNK1α1,114 % of control
same,Activity (% of control),CK2,99 % of control
same,Activity (% of control),CDK7/cyclinH,100 % of control
same,Activity (% of control),CDK2/cyclinA,87 % of control
same,Activity (% of control),MAPK2,105 % of control
